Source: ChEMBL document CHEMBL5653615 (J Biol Chem, 2013)

How the values were obtained:
[1] = molecular target: Serine/threonine-protein kinase pim-2 (Homo sapiens) (UniProt Q9P1W9); assay: Inhibition of human PIM2 at 500 nM by HotSpot assay relative to control
[2] = molecular target: Calcium/calmodulin-dependent protein kinase kinase 2 (Homo sapiens) (UniProt Q96RR4); assay: Inhibition of human CAMKK2 at 1.82 nM by HotSpot assay relative to control
[3] = molecular target: Serine/threonine-protein kinase Nek7 (Homo sapiens) (UniProt Q8TDX7); assay: Inhibition of human NEK7 at 1.82 nM by HotSpot assay relative to control
[4] = molecular target: T1, Serine/threonine-protein kinase STK11 (Homo sapiens) (UniProt Q15831); assay: Inhibition of human LKB1 at 1.82 nM by HotSpot assay relative to control
T1 sequence (whole entry): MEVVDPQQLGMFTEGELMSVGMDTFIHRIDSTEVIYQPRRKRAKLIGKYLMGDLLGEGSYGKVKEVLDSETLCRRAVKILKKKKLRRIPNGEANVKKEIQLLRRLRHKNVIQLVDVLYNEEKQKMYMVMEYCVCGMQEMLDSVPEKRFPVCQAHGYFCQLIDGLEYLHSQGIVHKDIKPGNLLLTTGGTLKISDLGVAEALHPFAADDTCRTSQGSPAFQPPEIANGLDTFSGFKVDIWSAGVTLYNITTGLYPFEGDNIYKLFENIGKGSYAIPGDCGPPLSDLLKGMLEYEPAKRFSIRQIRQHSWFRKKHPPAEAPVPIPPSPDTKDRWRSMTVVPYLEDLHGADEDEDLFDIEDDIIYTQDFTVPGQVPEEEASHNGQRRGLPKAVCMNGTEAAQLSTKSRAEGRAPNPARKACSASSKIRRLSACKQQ

[5] = molecular target: Tyrosine-protein kinase FRK (Homo sapiens) (UniProt P42685); assay: Inhibition of human FRK at 1.82 nM by HotSpot assay relative to control
[6] = molecular target: MAP kinase-interacting serine/threonine-protein kinase 2 (Homo sapiens) (UniProt Q9HBH9); assay: Inhibition of human MNK2 at 1.82 nM by HotSpot assay relative to control
[7] = molecular target: T2, Tyrosine-protein kinase receptor TYRO3 (Homo sapiens) (UniProt Q06418); assay: Inhibition of human SKY at 1.82 nM by HotSpot assay relative to control
T2 sequence (whole entry): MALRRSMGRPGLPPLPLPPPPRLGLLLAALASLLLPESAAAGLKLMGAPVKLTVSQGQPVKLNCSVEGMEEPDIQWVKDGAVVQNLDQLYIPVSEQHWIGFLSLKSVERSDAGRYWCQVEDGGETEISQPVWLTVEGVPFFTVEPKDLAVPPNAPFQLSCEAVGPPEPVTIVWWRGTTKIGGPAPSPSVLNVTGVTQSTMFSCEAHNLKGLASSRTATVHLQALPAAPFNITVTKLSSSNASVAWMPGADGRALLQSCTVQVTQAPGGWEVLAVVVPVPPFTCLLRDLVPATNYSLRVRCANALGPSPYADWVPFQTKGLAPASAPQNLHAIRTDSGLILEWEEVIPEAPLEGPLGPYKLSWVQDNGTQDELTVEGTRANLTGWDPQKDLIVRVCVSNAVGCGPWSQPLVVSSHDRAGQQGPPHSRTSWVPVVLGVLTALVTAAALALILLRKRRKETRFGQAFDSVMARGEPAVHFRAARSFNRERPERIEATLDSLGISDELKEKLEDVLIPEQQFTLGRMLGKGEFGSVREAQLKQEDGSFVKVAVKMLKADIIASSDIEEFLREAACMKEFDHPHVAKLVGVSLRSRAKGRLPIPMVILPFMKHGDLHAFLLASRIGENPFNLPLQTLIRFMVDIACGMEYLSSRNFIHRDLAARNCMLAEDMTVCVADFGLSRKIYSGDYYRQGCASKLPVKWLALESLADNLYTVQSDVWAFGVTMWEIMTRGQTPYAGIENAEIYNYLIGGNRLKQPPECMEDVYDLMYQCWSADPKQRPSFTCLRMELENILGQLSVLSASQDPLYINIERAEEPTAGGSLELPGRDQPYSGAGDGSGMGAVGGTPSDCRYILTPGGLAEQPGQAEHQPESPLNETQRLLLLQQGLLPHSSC

[8] = molecular target: Serine/threonine-protein kinase pim-3 (Homo sapiens) (UniProt Q86V86); assay: Inhibition of human PIM3 at 18.6 nM by HotSpot assay relative to control
[9] = molecular target: Cyclin-dependent kinase 4/cyclin D1 (Homo sapiens) (UniProt P11802+P24385); assay: Inhibition of human CDK4/cyclin D1 at 18.6 nM by HotSpot assay relative to control; format: protein-complex assay
[10] = molecular target: Wee1-like protein kinase (Homo sapiens) (UniProt P30291); assay: Inhibition of human WEE1 at 18.6 nM by HotSpot assay relative to control
[11] = molecular target: Serine/threonine-protein kinase Nek4 (Homo sapiens) (UniProt P51957); assay: Inhibition of human NEK4 at 18.6 nM by HotSpot assay relative to control
[12] = molecular target: Glycogen synthase kinase-3 beta (Homo sapiens) (UniProt P49841); assay: Inhibition of human GSK3b at 18.6 nM by HotSpot assay relative to control
[13] = molecular target: Serine/threonine-protein kinase Chk2 (Homo sapiens) (UniProt O96017); assay: Inhibition of human CHK2 at 18.6 nM by HotSpot assay relative to control
[14] = molecular target: Insulin receptor-related protein (Homo sapiens) (UniProt P14616); assay: Inhibition of human IRR at 18.6 nM by HotSpot assay relative to control
[15] = molecular target: Protein kinase C beta type (Homo sapiens) (UniProt P05771); assay: Inhibition of human PKCb2 at 18.6 nM by HotSpot assay relative to control
Chain of Protein kinase C beta type (Homo sapiens) (P05771 2-671 limits assumed): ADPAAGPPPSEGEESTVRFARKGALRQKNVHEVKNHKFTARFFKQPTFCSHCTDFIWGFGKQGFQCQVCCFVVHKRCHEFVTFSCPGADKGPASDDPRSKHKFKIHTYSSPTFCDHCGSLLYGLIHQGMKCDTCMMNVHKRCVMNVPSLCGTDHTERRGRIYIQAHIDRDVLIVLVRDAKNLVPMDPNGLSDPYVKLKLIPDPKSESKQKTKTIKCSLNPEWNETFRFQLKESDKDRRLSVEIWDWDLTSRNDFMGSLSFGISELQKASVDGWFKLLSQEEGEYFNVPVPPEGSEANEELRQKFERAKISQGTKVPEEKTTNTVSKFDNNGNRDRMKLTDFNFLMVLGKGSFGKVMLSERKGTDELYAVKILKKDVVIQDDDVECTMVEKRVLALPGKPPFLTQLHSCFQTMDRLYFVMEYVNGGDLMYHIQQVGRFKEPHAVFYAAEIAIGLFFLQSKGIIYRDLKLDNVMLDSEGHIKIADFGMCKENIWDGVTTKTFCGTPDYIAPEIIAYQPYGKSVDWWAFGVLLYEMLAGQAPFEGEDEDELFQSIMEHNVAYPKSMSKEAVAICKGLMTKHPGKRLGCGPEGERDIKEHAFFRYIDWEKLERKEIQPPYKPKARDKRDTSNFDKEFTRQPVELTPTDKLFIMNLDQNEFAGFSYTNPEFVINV

Chain of Tyrosine-protein kinase FRK (Homo sapiens) (P42685 whole entry): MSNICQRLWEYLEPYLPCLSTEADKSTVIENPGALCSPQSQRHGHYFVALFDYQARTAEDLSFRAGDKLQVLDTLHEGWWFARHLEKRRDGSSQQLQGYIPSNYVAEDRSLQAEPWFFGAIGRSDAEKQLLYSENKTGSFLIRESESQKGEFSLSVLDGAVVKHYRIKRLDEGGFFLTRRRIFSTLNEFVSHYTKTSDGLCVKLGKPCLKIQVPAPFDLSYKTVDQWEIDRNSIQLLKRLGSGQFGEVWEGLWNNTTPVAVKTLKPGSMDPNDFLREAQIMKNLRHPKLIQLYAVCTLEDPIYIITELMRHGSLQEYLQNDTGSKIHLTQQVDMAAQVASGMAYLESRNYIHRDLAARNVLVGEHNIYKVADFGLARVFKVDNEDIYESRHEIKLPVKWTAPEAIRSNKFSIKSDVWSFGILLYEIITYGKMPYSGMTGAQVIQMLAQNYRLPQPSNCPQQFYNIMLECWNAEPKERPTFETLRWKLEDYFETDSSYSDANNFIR
Chain of MAP kinase-interacting serine/threonine-protein kinase 2 (Homo sapiens) (Q9HBH9 whole entry, looked up): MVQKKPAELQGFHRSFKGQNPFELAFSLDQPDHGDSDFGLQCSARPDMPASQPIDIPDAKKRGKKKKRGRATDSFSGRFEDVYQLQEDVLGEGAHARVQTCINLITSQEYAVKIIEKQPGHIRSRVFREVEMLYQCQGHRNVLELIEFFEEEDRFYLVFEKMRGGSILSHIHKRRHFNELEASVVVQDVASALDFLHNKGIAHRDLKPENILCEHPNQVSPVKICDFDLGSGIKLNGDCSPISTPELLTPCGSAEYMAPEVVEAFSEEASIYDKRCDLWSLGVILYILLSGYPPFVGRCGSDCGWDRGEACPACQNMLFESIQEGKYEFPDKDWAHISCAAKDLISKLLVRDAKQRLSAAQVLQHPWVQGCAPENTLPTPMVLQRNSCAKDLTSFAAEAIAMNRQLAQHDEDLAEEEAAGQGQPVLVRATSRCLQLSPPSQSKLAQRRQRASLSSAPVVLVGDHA
Chain of Wee1-like protein kinase (Homo sapiens) (P30291 whole entry, looked up): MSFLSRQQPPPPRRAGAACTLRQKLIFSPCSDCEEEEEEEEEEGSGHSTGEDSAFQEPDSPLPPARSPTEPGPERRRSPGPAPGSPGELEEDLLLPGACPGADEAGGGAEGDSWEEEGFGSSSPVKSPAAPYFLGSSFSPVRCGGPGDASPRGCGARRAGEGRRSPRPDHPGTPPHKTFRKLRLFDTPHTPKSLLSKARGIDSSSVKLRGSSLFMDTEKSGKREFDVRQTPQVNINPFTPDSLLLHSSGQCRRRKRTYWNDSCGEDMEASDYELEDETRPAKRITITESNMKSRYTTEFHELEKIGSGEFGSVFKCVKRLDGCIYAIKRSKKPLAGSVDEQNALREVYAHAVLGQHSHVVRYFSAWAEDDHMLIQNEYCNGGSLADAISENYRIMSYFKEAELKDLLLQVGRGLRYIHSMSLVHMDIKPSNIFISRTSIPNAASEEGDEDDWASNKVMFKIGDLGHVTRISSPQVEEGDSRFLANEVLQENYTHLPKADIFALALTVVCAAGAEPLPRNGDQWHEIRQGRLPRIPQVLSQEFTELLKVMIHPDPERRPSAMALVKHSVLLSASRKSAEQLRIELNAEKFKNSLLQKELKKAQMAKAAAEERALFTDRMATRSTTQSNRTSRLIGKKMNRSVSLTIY
Chain of Serine/threonine-protein kinase Nek4 (Homo sapiens) (P51957 whole entry, looked up): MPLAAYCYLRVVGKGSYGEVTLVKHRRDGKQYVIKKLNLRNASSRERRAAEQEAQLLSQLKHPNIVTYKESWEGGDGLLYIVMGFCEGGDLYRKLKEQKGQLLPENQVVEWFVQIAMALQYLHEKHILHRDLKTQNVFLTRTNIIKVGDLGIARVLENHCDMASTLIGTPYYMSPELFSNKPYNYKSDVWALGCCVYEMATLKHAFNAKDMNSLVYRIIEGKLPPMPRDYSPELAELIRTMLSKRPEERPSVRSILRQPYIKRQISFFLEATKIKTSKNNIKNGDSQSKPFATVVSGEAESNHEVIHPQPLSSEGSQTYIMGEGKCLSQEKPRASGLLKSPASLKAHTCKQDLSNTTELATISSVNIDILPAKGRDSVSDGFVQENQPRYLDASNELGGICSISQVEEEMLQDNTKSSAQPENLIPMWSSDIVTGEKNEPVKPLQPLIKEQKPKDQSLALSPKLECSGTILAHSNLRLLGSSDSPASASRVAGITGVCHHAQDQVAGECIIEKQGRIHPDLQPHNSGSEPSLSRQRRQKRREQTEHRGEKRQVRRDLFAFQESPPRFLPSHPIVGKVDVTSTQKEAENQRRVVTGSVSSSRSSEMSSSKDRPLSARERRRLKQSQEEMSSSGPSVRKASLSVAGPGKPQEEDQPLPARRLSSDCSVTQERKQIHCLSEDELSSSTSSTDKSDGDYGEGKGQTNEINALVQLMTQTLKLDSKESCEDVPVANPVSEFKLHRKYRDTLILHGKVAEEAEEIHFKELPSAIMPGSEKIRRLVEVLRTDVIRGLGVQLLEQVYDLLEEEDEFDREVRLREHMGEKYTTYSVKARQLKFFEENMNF
Chain of Serine/threonine-protein kinase Nek7 (Homo sapiens) (Q8TDX7 whole entry, looked up): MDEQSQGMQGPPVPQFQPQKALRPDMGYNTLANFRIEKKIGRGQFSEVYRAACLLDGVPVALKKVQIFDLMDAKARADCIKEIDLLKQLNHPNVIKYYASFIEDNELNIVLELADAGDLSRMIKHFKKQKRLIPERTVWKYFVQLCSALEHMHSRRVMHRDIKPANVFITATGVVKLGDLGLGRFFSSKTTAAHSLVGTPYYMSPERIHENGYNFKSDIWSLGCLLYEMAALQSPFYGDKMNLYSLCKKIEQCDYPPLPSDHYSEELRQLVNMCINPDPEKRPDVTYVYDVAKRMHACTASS
Chain of Insulin receptor-related protein (Homo sapiens) (P14616 27-742 limits assumed): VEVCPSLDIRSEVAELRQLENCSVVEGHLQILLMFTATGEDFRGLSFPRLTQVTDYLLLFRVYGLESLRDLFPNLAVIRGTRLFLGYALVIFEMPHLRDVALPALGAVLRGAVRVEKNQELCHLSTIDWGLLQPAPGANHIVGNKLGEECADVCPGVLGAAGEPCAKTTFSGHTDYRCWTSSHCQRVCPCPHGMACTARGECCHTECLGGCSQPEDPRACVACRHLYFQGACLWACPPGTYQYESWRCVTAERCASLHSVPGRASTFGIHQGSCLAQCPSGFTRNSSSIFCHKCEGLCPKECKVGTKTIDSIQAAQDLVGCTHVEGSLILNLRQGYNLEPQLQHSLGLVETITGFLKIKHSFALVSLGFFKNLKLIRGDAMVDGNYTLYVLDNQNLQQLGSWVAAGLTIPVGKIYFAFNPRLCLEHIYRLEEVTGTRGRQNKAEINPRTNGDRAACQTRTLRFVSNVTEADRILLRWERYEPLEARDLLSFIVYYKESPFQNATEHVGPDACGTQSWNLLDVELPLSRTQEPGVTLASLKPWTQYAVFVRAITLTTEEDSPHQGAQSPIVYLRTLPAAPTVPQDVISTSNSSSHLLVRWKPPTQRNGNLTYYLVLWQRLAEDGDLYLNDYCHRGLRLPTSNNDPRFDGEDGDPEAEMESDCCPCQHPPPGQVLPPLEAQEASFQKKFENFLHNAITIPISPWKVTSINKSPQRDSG
Chain of Insulin receptor-related protein (Homo sapiens) (P14616 747-1297 limits assumed): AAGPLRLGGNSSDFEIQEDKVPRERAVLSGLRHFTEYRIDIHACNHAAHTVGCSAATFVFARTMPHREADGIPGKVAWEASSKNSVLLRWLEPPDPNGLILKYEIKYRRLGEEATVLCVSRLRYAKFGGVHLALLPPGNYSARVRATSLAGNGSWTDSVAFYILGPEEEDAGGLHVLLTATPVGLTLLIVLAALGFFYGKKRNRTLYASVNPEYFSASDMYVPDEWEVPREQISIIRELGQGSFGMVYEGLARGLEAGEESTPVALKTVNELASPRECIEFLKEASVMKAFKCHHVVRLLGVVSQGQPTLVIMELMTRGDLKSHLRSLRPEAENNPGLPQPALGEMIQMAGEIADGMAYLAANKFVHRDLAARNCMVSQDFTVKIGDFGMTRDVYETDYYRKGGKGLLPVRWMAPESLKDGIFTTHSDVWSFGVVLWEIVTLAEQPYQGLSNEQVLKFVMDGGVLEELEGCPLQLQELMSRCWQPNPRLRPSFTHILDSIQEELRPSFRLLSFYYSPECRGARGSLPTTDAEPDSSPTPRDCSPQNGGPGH
Chain of Serine/threonine-protein kinase pim-2 (Homo sapiens) (Q9P1W9 whole entry, looked up): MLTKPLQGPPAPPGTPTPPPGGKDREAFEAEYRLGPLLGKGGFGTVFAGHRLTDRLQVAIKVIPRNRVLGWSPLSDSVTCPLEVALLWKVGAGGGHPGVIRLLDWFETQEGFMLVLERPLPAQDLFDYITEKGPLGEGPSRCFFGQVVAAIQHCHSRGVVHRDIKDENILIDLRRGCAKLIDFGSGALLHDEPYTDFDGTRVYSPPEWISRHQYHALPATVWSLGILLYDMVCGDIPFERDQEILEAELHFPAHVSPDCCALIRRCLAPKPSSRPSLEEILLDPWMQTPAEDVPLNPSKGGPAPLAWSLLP

## Nc1n[nH]c2nnc(-c3c(-c4ccccc4)nn4ccccc34)cc12
[1]
  inhibition: 8.35%

## C[C@@]1(C(=O)Nc2ccc(F)nc2)CCCN1c1nc(Nc2cc(C3CC3)n[nH]2)c2cccn2n1
[2]
  inhibition: 26.5%
[3]
  inhibition: -3.98%
[4]
  inhibition: 4.47%
[5]
  inhibition: 0.97%
[6]
  inhibition: -4.8%
[7]
  inhibition: -1.49%

## C[C@]1(O)C[C@@H](c2nc(-c3ccc4ccc(-c5ccccc5)nc4c3)c3c(N)nccn32)C1
[8]
  inhibition: 20.9%
[9]
  inhibition: -1.49%
[10]
  inhibition: 7.34%
[11]
  inhibition: -3.26%
[12]
  inhibition: 67.1%
[13]
  inhibition: 0.83%
[14]
  inhibition: 100%
[15]
  inhibition: -7.92%
